# Measured values from ChEMBL document CHEMBL5316369, “From the Spectroscopic Reassessment of Authentic Alkaloid Samples to the Molecular Networking-Guided Discovery of Criophylline-Related Analogues from Callichilia inaequalis” (J Nat Prod, 2023).
# pIC50: −log10 of the molar value.
# Test system: Plasmodium falciparum
# Assay: Antiparasitic activity against chloroquine-resistant Plasmodium falciparum FcB1 assessed as inhibition of parasite growth incubated for 24 hrs by liquid scintillation spectrometer analysis
# Type: functional, organism-based
# Details: FcB1, 24 h
row,SMILES,pIC50
1,CC[C@@]12CC[C@@]34Nc5ccc([C@@H]6[C@H]7O[C@H]7[C@]7(CC)CC(C(=O)OC)=C8Nc9ccccc9[C@@]89CCN6[C@@H]79)cc5[C@@H]3CCN(C[C@H](O)[C@H]1O)[C@@H]24,5.54
2,CC[C@@]12CC[C@@]34Nc5ccc([C@@H]6[C@H]7O[C@H]7[C@]7(CC)CC(C(=O)OC)=C8Nc9ccccc9[C@@]89CCN6[C@@H]79)cc5[C@@H]3CCN(C[C@H](OS(=O)(=O)O)[C@H]1O)[C@@H]24,4.84
3,CC[C@@]12CC[C@@]34Nc5ccc([C@@H]6[C@H]7O[C@H]7[C@]7(CC)CC(C(=O)OC)=C8Nc9ccccc9[C@@]89CCN6[C@@H]79)cc5[C@@H]3CCN(C[C@H]3O[C@H]31)[C@@H]24,4.26
